Usually IC50 stands for the concentration that gives 50% inhibition.

One experiment addresses Aurora A (Homo sapiens (Human), UniProt O14965). Nature of the experiment: Aurora A kinase assay (mobility shift assay). In kind it is biochemical. As to the method: (§1) Example A: Evaluation of Aurora a and Aurora B Inhibitory Effect—Kinase Assay
(§2) The inhibitory activities of a test compound against Aurora A and Aurora B were measured according to the following method.
(§3) The IC50 value of Aurora A and Aurora B kinase was performed by Sundia MediTech Co. Ltd. using Mobility shift assay.
(§4) • (1) Prepare a 1× kinase buffer [50 mM 4-(2-hydroxyethyl)-1-piperazineethanesulfonic acid (HEPES), PH 7.5, 0.01% Brij-35, 10 mM MgCl2, 2 mM dithiothreitol (DTT)]. • (2) Prepare compound:
(§5) The testing compound was dissolved with DMSO. The testing compound was diluted up to 100× final concentration in a 384-well plate. Transfer 250 nL of the compound dilution to a 384-well assay plate using Echo 550. 100% DMSO of 250 nL was added to the negative control well and the positive control well. • (3) Prepare a 2.5× enzyme solution using the above 1× kinase buffer. • (4) Add 10 μL of the 2.5× enzyme solution to the compound well and the positive control well of the 384-well assay plate. Add 10 μL of the 1× kinase buffer to the negative control well. • (5) The 384-well plate was centrifuged at 1000 rpm for 30 seconds and incubated at room temperature for 10 min. • (6) A mixture of ATP and Kinase substrate 21 with a final concentration of 25/15× was prepared by the 1× kinase buffer. • (7) Add 15 μL of the mixture of 25/15×ATP and kinase substrate solution 21 to start reaction. • (8) The 384-well plate was centrifuged at 1000 rpm for 30 seconds and incubated at room temperature. • (9) 30 μL of the stop and detection buffer was added to stop the kinase reaction and centrifuged at 1000 rpm for 30 seconds. • (10) Collect data on Caliper EZ ReaderII. Data Analysis:
(§6) Conversion %_sample is conversion rate data of samples. Conversion %_min is mean value of negative control (conversion rate data without enzyme activation). Conversion %_max is mean positive control (conversion rate data without compound).
(§7) The log of concentration is on the X axis, and the percentage inhibition is on the Y axis. Fit the Quantitative effect curves with log (inhibitor) vs. response—Variable slope in GraphPad Prism5 obtain IC50 values. Equation used is Y=Bottom+(Top−Bottom)/(1+10^((Log IC50−X)*HillSlope)).

In another experiment the target is Aurora B (Homo sapiens (Human), UniProt Q96GD4). As to the kind of experiment: Aurora B kinase assay (mobility shift assay). In kind it is biochemical. Particulars: ratio of Aurora B IC50 to Aurora A IC50. On the procedure:
as §1, §2, §3, §4, §5, §6, §7

Chain of Aurora A (O14965 whole entry): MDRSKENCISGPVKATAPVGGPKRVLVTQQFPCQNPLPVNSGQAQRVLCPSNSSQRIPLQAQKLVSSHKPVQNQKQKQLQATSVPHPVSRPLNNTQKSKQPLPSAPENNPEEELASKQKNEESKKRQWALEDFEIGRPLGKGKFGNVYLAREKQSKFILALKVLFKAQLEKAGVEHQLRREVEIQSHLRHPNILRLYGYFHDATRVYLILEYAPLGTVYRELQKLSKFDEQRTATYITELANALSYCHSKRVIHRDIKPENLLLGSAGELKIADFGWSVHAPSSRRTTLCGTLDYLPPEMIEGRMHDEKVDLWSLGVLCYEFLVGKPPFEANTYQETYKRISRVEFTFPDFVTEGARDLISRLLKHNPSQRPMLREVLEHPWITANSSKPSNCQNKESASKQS
Chain of Aurora B (Q96GD4 whole entry): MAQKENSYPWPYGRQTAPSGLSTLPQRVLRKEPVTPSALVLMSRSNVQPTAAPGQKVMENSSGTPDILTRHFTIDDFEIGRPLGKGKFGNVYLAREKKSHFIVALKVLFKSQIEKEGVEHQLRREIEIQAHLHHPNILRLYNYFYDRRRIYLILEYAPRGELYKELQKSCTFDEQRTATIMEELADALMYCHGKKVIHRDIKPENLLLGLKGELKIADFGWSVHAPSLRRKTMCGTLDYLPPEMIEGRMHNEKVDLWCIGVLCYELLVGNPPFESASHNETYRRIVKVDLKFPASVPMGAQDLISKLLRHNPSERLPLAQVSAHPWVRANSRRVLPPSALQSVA

Turning to `Cc1cc(Nc2cncc(C[C@@]3(C(=O)O)CCN(Cc4cccc(Cl)c4F)[C@H](C)C3)n2)n[nH]1` (stereo in doubt) [Example 45, (2R,4R)-1-(3-chloro-2-fluorobenzyl)-2-methyl-4-((6-((5-methyl-1H-pyrazol-3-yl)amino)pyrazin-2-yl)methyl)piperidine-4-carboxylic acid], on Aurora A, the IC50 was 0.88 nM. The “IC50 Ratio Aur B/Aur A” value on Aurora B turned out to be 523.
Regarding `Cc1cc(Nc2ccc(F)c(CC3(C(=O)O)CCN(Cc4cccc(Cl)c4F)CC3)n2)n[nH]1` [Example 1, 1-(3-chloro-2-fluorobenzyl)-4-((3-fluoro-6-((5-methyl-1H-pyrazol-3-yl)amino)pyridin-2-yl)methyl)piperidine-4-carboxylic acid], on Aurora A, the IC50 is 1.3 nM. Besides, the “IC50 Ratio Aur B/Aur A” value at Aurora B is listed as 2288.
On the same counts, the results for `CCC1CC(Cc2nc(Nc3cc(C)[nH]n3)ccc2F)(C(=O)O)CCN1Cc1cccc(Cl)c1F` (stereo not shown) [Example 2, 1-(3-chloro-2-fluorobenzyl)-2-ethyl-4-((3-fluoro-6-((5-methyl-1H-pyrazol-3-yl)amino)pyridin-2-yl)methyl)piperidine-4-carboxylic acid] are 2.9 nM and 1236.
Taken in the same sequence, the figures for `Cc1cc(Nc2ccc(C)c(C[C@@]3(C(=O)O)CCN(Cc4cccc(Cl)c4F)[C@H](C)C3)n2)n[nH]1` [Example 10, (2R,4R)-1-(3-chloro-2-fluorobenzyl)-2-methyl-4-((3-methyl-6-((5-methyl-1H-pyrazol-3-yl)amino)pyridin-2-yl)methyl) piperidine-4-carboxylic acid] were 1 nM and 979.
On the same counts, the results for `Cc1cc(Nc2ccc(Cl)c(C[C@@]3(C(=O)O)CCN(Cc4cccc(Cl)c4F)[C@H](C)C3)n2)n[nH]1` [Example 11, (2R,4R)-1-(3-chloro-2-fluorobenzyl)-4-((3-chloro-6-((5-methyl-1H-pyrazol-3-yl)amino)pyridin-2-yl)methyl)-2-methylpiperidine-4-carboxylic acid] are 0.64 nM and 2264.
As to `Cc1cc(Nc2ccc(F)c(C[C@@]3(C(=O)O)CCN(Cc4c(F)cccc4F)[C@H](C)C3)n2)n[nH]1` [Example 12, (2R,4R)-1-(2,6-difluorobenzyl)-4-((3-fluoro-6-((5-methyl-1H-pyrazol-3-yl)amino)pyridin-2-yl)methyl)-2-methylpiperidine-4-carboxylic acid], the IC50 on Aurora A worked out at 2.4 nM. In addition, the “IC50 Ratio Aur B/Aur A” value at Aurora B turned out to be 2560.
On the same counts, the results for `Cc1cc(Nc2ccc(F)c(C[C@@]3(C(=O)O)CCN(Cc4cccc(F)c4F)[C@H](C)C3)n2)n[nH]1` [Example 15, (2R,4R)-1-(2,3-difluorobenzyl)-4-((3-fluoro-6-((5-methyl-1H-pyrazol-3-yl)amino)pyridin-2-yl)methyl)-2-methylpiperidine-4-carboxylic acid] are 0.55 nM and 1755.
Taken in the same sequence, the figures for `Cc1cc(Nc2ccc(F)c(C[C@@]3(C(=O)O)CCN(Cc4cccc(C)c4F)[C@H](C)C3)n2)n[nH]1` [Example 16, (2R,4R)-1-(2-fluoro-3-methylbenzyl)-4-((3-fluoro-6-((5-methyl-1H-pyrazol-3-yl)amino)pyridin-2-yl)methyl)-2-methylpiperidine-4-carboxylic acid] were 1.7 nM and 1812.
On to `Cc1cc(Nc2ccc(F)c(C[C@@]3(C(=O)O)CCN(Cc4c(Cl)cccc4Cl)[C@H](C)C3)n2)n[nH]1` [Example 17, (2R,4R)-1-(2,6-dichlorobenzyl)-4-((3-fluoro-6-((5-methyl-1H-pyrazol-3-yl)amino)pyridin-2-yl)methyl)-2-methylpiperidine-4-carboxylic acid], for which, at Aurora A, the IC50 was determined as 3.2 nM. The “IC50 Ratio Aur B/Aur A” value on Aurora B was found to be 2974.
Taken in the same sequence, the figures for `Cc1cc(Nc2ccc(F)c(C[C@@]3(C(=O)O)CCN(Cc4cccc(C(F)(F)F)c4)[C@H](C)C3)n2)n[nH]1` [Example 21, (2R,4R)-4-((3-fluoro-6-((5-methyl-1H-pyrazol-3-yl)amino)pyridin-2-yl)methyl)-2-methyl-1-(3-(trifluoromethyl)benzyl) piperidine-4-carboxylic acid] were 3.1 nM and 1789.
Take `Cc1cc(Nc2ccc(F)c(C[C@@]3(C(=O)O)CCN(Cc4cc(Cl)c(F)c(Cl)c4)[C@H](C)C3)n2)n[nH]1` [Example 23, (2R,4R)-1-(3,5-dichloro-4-fluorobenzyl)-4-((3-fluoro-6-((5-methyl-1H-pyrazol-3-yl)amino)pyridin-2-yl)methyl)-2-methylpiperidine-4-carboxylic acid]: the IC50 on Aurora A is 0.91 nM. In addition, the “IC50 Ratio Aur B/Aur A” value at Aurora B worked out at 613.
As to `Cc1cc(Nc2ncc(F)c(C[C@@]3(C(=O)O)CCN(Cc4cccc(Cl)c4F)[C@H](C)C3)n2)n[nH]1` [Example 26, (2R,4R)-1-(3-chloro-2-fluorobenzyl)-4-((5-fluoro-2-((5-methyl-1H-pyrazol-3-yl)amino)pyrimidin-4-yl)methyl)-2-methylpiperidine-4-carboxylic acid], the IC50 on Aurora A amounted to 2.9 nM. The “IC50 Ratio Aur B/Aur A” value at Aurora B is 1499.
Taken in the same sequence, the figures for `Cc1cc(Nc2ccc(F)c(C[C@@]3(C(=O)O)CCN(Cc4ccc(F)c(Cl)c4F)[C@H](C)C3)n2)n[nH]1` [Example 27, (2R,4R)-1-(3-chloro-2,4-difluorobenzyl)-4-((3-fluoro-6-((5-methyl-1H-pyrazol-3-yl)amino)pyridin-2-yl)methyl)-2-methylpiperidine-4-carboxylic acid] were 0.81 nM and 622.
In the case of `Cc1cc(Nc2cccc(C[C@@]3(C(=O)O)CCN(Cc4cccc(Cl)c4F)[C@H](C)C3)n2)n[nH]1` [Example 29, (2R,4R)-1-(3-chloro-2-fluorobenzyl)-2-methyl-4-((6-((5-methyl-1H-pyrazol-3-yl)amino)pyridin-2-yl)methyl)piperidine-4-carboxylic acid], the IC50 at Aurora A stood at 1.4 nM. For the same compound, the “IC50 Ratio Aur B/Aur A” value on Aurora B is given as 586.
On the same counts, the results for `Cc1cc(Nc2nc(C[C@@]3(C(=O)O)CCN(Cc4cccc(Cl)c4F)[C@H](C)C3)cnc2C)n[nH]1` [Example 33, (2R,4R)-1-(3-chloro-2-fluorobenzyl)-2-methyl-4-((5-methyl-6-((5-methyl-1H-pyrazol-3-yl)amino)pyrazin-2-yl)methyl) piperidine-4-carboxylic acid] are 1.5 nM and 3757.
On the same counts, the results for `Cc1cc(Nc2nc(C[C@@]3(C(=O)O)CCN(Cc4cccc(Cl)c4F)[C@H](C)C3)c(F)cc2C)[nH]n1` [Example 35, (2R,4R)-1-(3-chloro-2-fluorobenzyl)-4-((3-fluoro-5-methyl-6-((3-methyl-1H-pyrazol-5-yl)amino)pyridin-2-yl)methyl)-2-methylpiperidine-4-carboxylic acid] are 1.9 nM and 2403.
For `Cc1cc(Nc2ccc(F)c(C[C@@]3(C(=O)O)CCN(C(=O)Cc4cccc(Cl)c4F)[C@H](C)C3)n2)n[nH]1` [Example 38, (2R,4R)-1-(2-(3-chloro-2-fluorophenyl)acetyl)-4-((3-fluoro-6-((5-methyl-1H-pyrazol-3-yl)amino)pyri-din-2-yl)methyl)-2-methyl-piperidine-4-carboxylic acid], the IC50 at Aurora A amounted to 0.85 nM. The “IC50 Ratio Aur B/Aur A” value on Aurora B amounted to 986.
As to `Cc1cc(Nc2ccc(F)c(C[C@@]3(C(=O)O)CCN(S(=O)(=O)c4ccccc4C(F)(F)F)[C@H](C)C3)n2)n[nH]1` [Example 39, (2R,4R)-4-((3-fluoro-6-((5-methyl-1H-pyrazol-3-yl)amino)pyridin-2-yl)methyl)-2-methyl-1-((2-(trifluoromethyl)phenyl)sulfonyl)piperidine-4-carboxylic acid], the IC50 on Aurora A came out at 0.57 nM. On Aurora B, the “IC50 Ratio Aur B/Aur A” value is reported as 3019.
Taken in the same sequence, the figures for `Cc1cc(Nc2ccc(F)c(C[C@@]3(C(=O)O)CCN([C@@H](C)c4cccc(Cl)c4F)[C@H](C)C3)n2)n[nH]1` [Example 41, (2R,4R)-1-(1-(3-chloro-2-fluorophenyl)ethyl)-4-((3-fluoro-6-((5-methyl-1H-pyrazol-3-yl)amino)pyridin-2-yl)methyl)-2-methylpiperidine-4-carboxylic acid] were 2.7 nM and 3682.
As for `Cc1cc(Nc2cc(C)c(F)c(CC3(C(=O)O)CCN(Cc4cccc(Cl)c4F)CC3)n2)n[nH]1` [Example 51, 1-(3-chloro-2-fluorobenzyl)-4-((3-fluoro-4-methyl-6-((5-methyl-1H-pyrazol-3-yl)amino)-pyridin-2-yl)methyl)piper-idine-4-carboxylic acid], the IC50 at Aurora A was determined as 0.22 nM. For the same compound, the “IC50 Ratio Aur B/Aur A” value on Aurora B is recorded as 2833.
